Measured values taken from patent publication US20200261450A1, “6,7-DIHYDROPYRAZOLO[1,5-a]PYRAZIN-4(5H)-ONE COMPOUNDS AND THEIR USE AS NEGATIVE ALLOSTERIC MODULATORS OF MGLUR2 RECEPTORS” (Janssen Pharmaceutica NV, priority 2014, published 2020).
Like-named read-outs stand apart in the source and are kept apart here.

Tests used:
human mGlu2 receptor = biological target: T1, human mGlu2 receptor (Homo sapiens, UniProt Q14416); test: [35S]GTPγS binding assay, mGluR2 negative allosteric modulation; assay type: biochemical; conditions: for Emax: maximal % inhibition relative to the control glutamate response, read-out: GTPγS-hmGluR2 anGT Emax; for IC50: membranes from CHO cells transfected with human mGlu2 receptor, glutamate 60 μM (~EC80), read-out: GTPγS-hmGluR2 anGT pIC50 (converted)
T1 construct: expressed in transfected cells; host or cells: CHO cells (membrane preparation)
Excerpt: Membrane-bound radioactivity was counted in a Topcount.

rats = test: Reversal of the effect of the mGluR2 PAM JNJ-42153605-induced inhibition of scopolamine-induced hyperlocomotion; assay type: in vivo; conditions: Rattus norvegicus, criterion total distance >1500 cm, read-out: ED50 SCOP JNJ-42153605
Experimental: 2) Reversal of the Effect of the mGluR2 PAM JNJ-42153605-Induced Inhibition of Scopolamine-Induced Hyperlocomotion
Motor activity was measured in microprocessor-based motor activity arenas (closed gray PVC cylinders with a height of 39 cm and a diameter of 31 cm). Each arena was placed on an infrared LED (8×8 LEDs) lit box (white PVC squared box; 40×40 cm^2; height 12.5 cm. An infrared-sensitive tube camera and a white light source were mounted to the ceiling above the observation chamber to track the animal. The total distance traveled (cm) was recorded and analyzed using the Noldus Ethovision XT Video Tracking System (Version 7.0.418; Noldus, Wageningen, The Netherlands). The intensity of the light within the activity cages (measured in the centre at the level of the floor) ranged between 4 and 8 LUX.
The rats were pretreated with test compound or vehicle at 60 min before the start of the activity recordings and placed into individual cages. The rats were challenged with JNJ-42153605 (3-(cyclopropylmethyl)-7-(4-phenylpiperidin-1-yl)-8-(trifluoromethyl)[1,2,4]triazolo[4,3-a]pyridine; WO2010/130424; Cid et al. J. Med. Chem. 2012, 55, 8770-8789) (20 mg/kg, i.v.) 30 min before the start of the activity recording combined with scopolamine (0.16 mg/kg, i.v.) just before the start of the activity measurements. Immediately after the injection of scopolamine, the rats were placed into the activity monitors and total distance traveled over the first 30 min was measured.
Animals receiving the combination of JNJ-42153605 and scopolamine (n=433) almost always traveled a distance of less than 1500 cm (<1500 cm) (only 2.5% of the control rats traveled a distance of more than 1500 cm (>1500 cm)). On the other hand, animals challenged with scopolamine alone (n=215) always traveled a total distance of more than 1500 cm (>1500 cm) and almost always (in 95.8% of the rats) a distance of more than 4400 cm (>4400 cm). […] For reversal of the inhibitory effect of JNJ-42153605 on the scopolamine-induced hyperlocomotion, the following all-or-none criteria were adopted: (1) reversal: total distance >1500 cm.

Wiga Wistar rats = test: Reversal of LY-404039-induced decrease of palpebral opening in apomorphine-challenged rats; assay type: in vivo; conditions: Rattus norvegicus, criterion cumulative palpebral opening score >26, read-out: ED50 APO LY-404039
Experimental: Male Wiga Wistar rats (Crl:WI; Charles River Germany; 220±40 g) were housed under standard laboratory conditions (21±2° C.; 50-65% relative humidity; light-dark cycle set at 12 h; lights on at 6.00 h) and fasted overnight prior to the start of the experiments (tap water remained available ad libitum). During the test period, they were housed in individual cages. Palpebral opening was scored every 5 min over the first hour after injection of apomorphine (1.0 mg/kg, i.v.) in animals either pretreated or not pretreated with LY-404039 (2.5 mg/kg, s.c.) at 1 h prior to the apomorphine injection. The animals were also pretreated with test compound or solvent at a predefined interval before apomorphine challenge. The score system was: (5) exophthalmos, (4) wide open, (3) open for three-quarters, (2) half open, (1) open for one-quarter, (0) closed. The scores for palpebral opening were cumulated over the 60-min observation period.
In animals receiving apomorphine alone the median palpebral opening is 43 whereas in animals receiving apomorphine and LY-404039, the median palpebral opening is 17.

Wiga rats = test: Induction of mydriasis; assay type: in vivo; conditions: Rattus norvegicus, route PO, pupil diameter >25 units 1 h post-administration
Experimental: The pupil diameter of Wiga rats was measured with a microscopic micrometer (1 unit= 1/24 mm). Criteria for drug-induced effects: pupil diameter >25 units for mydriasis (in controls: 1.9%) 1 h post-administration of the test compound.

T1 sequence (Q14416 19-872): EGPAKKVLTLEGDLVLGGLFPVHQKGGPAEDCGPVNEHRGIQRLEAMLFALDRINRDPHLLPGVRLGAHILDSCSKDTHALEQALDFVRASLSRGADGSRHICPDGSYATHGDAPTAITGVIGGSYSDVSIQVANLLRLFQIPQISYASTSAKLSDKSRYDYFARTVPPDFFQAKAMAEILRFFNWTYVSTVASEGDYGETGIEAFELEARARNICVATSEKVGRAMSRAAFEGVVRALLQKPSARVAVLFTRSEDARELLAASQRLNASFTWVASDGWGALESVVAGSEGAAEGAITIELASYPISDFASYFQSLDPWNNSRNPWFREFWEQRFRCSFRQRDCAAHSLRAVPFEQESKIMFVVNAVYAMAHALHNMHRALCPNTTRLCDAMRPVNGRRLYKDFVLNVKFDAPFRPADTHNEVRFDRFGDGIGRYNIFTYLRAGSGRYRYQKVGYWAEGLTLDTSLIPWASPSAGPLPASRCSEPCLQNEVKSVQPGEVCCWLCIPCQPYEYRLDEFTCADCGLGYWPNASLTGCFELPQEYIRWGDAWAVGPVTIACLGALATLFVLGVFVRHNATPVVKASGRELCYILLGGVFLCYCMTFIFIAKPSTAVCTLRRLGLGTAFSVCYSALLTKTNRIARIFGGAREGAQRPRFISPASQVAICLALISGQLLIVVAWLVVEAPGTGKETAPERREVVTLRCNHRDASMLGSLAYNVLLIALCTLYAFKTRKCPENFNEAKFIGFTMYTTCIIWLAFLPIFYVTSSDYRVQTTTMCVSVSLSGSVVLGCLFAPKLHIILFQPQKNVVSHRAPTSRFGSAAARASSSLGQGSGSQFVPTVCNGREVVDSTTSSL

Row | Emax (human mGlu2 receptor) [%] | IC50 (human mGlu2 receptor) [nM] | melting point [°C] | Compound | ED50 (rats; route PO) [mg/kg] | ED50 (Wiga Wistar rats; route PO) [mg/kg] | ED50 (Wiga Wistar rats; route SC) [mg/kg] | ED50 (rats; route SC) [mg/kg] | ED50 (Wiga rats) [mg/kg]
1 | 103 | 2.75 | 126.2 | Cc1cc(-c2cnn3c2C(=O)N(c2ccc(C(F)(F)F)c(Cl)c2)C[C@@H]3C)on1 [compound 12] | 1.99 |  |  |  | 
2 | 109 | 3.24 | 143.97 | Cc1cc(N2C[C@H](C)n3ncc(-c4cc(-c5cccnc5)no4)c3C2=O)ccc1C(F)(F)F [compound 18] | > 0.63 |  |  |  | 
3 | 112 | 1.95 | 263.6 | C[C@H]1CN(c2ccc(C(F)(F)F)cc2)C(=O)c2c(-c3cc(-c4ccc(N)nc4)no3)cnn21 [Co. No. 2, (7S)-3-[3-(6-Amino-3-pyridyl)isoxazol-5-yl]-7-methyl-5-[4-(trifluoromethyl)phenyl]-6,7-dihydropyrazolo[1,5-a]pyrazin-4-one] | 0.28 | 0.32 | 0.2 | 0.3 | 7.94
4 | 100 | 490 |  | C[C@H]1CN(c2ccc(C(F)(F)F)cc2)C(=O)c2c(-c3cc(N)no3)cnn21 [Co. No. 1, (7S)-3-(3-Aminoisoxazol-5-yl)-7-methyl-5-[4-(trifluoromethyl)phenyl]-6,7-dihydropyrazolo[1,5-a]pyrazin-4-one] |  |  |  |  | 
5 | 109 | 7.08 | 150.37 | Cc1cc(N2C[C@H](C)n3ncc(-c4cc(-c5cnccn5)no4)c3C2=O)ccc1C(F)(F)F [compound 21] | > 0.63 |  |  |  | 
6 | 105 | 3.8 | 168.47 | C[C@H]1CN(c2ccc(C(F)(F)F)c(Cl)c2)C(=O)c2c(-c3cc(-c4cnccn4)no3)cnn21 [compound 16] | > 0.63 |  |  |  | 
7 | 104 | 12.9 | 171.64 | Cc1cc(N2C[C@H](C)n3ncc(-c4cc(-c5cncc(F)c5)no4)c3C2=O)ccc1C(F)(F)F [compound 19] |  |  |  |  | 
8 | 105 | 20 | 202.51 | C[C@H]1CN(c2ccc(C(F)(F)F)cc2)C(=O)c2c(-c3cc(-c4cnccn4)no3)cnn21 [compound 11] |  |  |  |  | 
9 | 105 | 12.9 | 186.15 | C[C@H]1CN(c2ccc(C(F)(F)F)cc2)C(=O)c2c(-c3cc(-c4cccnc4)no3)cnn21 [compound 8] |  |  |  |  | 
10 | 105 | 1.58 |  | C[C@H]1CN(c2ccc(C(F)(F)F)c(Cl)c2)C(=O)c2c(-c3cc(-c4ccc(N)nc4)no3)cnn21 [Co. No. 3, (7S)-3-[3-(6-Amino-3-pyridyl)isoxazol-5-yl]-5-[3-chloro-4-(trifluoromethyl)phenyl]-7-methyl-6,7-dihydropyrazolo[1,5-a]pyrazin-4-one] | 0.5 |  |  |  | 
11 | 107 | 7.24 | 159.08 | C[C@H]1CN(c2ccc(C(F)(F)F)c(Cl)c2)C(=O)c2c(-c3cc(-c4ccccn4)no3)cnn21 [compound 13] | > 0.63 |  |  |  | 
12 | 107 | 11.7 | 227.97 | C[C@H]1CN(c2ccc(C(F)(F)F)cc2)C(=O)c2c(-c3cc(-c4ccccn4)no3)cnn21 [compound 7] |  |  |  |  | 
13 | 105 | 2.34 | 115.67 | C[C@H]1CN(c2ccc(C(F)(F)F)c(Cl)c2)C(=O)c2c(-c3cc(-c4cccnc4)no3)cnn21 [Co. No. 4, (7S)-5-[3-Chloro-4-(trifluoromethyl)phenyl]-7-methyl-3-[3-(3-pyridyl)isoxazol-5-yl]-6,7-dihydropyrazolo[1,5-a]pyrazin-4-one] | 0.51 |  |  |  | 
14 | 107 | 10.2 | 171.97 | Cc1cc(N2C[C@H](C)n3ncc(-c4cc(-c5ccccn5)no4)c3C2=O)ccc1C(F)(F)F [compound 17] | > 0.63 |  |  |  | 
15 | 108 | 2.88 | 211.19 | Cc1ccncc1-c1cc(-c2cnn3c2C(=O)N(c2ccc(C(F)(F)F)cc2)C[C@@H]3C)on1 [compound 10] | > 0.63 |  |  |  | 
16 | 105 | 5.89 | 181.56 | C[C@H]1CN(c2ccc(C(F)(F)F)c(Cl)c2)C(=O)c2c(-c3cc(-c4cncc(F)c4)no3)cnn21 [compound 14] |  |  |  |  | 
17 | 102 | 16.6 | 161 | Cc1cc(-c2cnn3c2C(=O)N(c2ccc(C(F)(F)F)cc2)C[C@@H]3C)on1 [compound 5] | > 2.5 |  |  |  | 
18 | 109 | 2.14 | 172.39 | Cc1ccncc1-c1cc(-c2cnn3c2C(=O)N(c2ccc(C(F)(F)F)c(C)c2)C[C@@H]3C)on1 [compound 20] | > 0.63 |  |  |  | 
19 | 103 | 12.3 | 220.55 | C[C@H]1CN(c2ccc(C(F)(F)F)cc2)C(=O)c2c(-c3cc(-c4ccccc4)no3)cnn21 [compound 6] |  |  |  |  | 
20 | 110 | 1.2 | 149.26 | Cc1ccncc1-c1cc(-c2cnn3c2C(=O)N(c2ccc(C(F)(F)F)c(Cl)c2)C[C@@H]3C)on1 [compound 15] | > 0.63 |  |  |  | 
21 | 108 | 11 | 180.17 | C[C@H]1CN(c2ccc(C(F)(F)F)cc2)C(=O)c2c(-c3cc(-c4cncc(F)c4)no3)cnn21 [compound 9] |  |  |  |  | 
